Laboratory results taken from patent US11040028B2, “Penicinotam derivative, preparation method and use thereof” (OCEAN UNIVERSITY OF CHINA, priority 2017, dated 2021).
Read-outs that look alike come from different tables or passages of the source. One block for each compound: values may come before it.

Key:
Type in all cases: cell-based
[1] = tested on: human lung fibroblasts HFL1; test: Anti-fibrosis activity test: inhibition of proliferation of human lung fibroblasts HFL1 (CCK-8); conditions: Homo sapiens, HFL1, 48 h
Method in brief: (§1)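 IC50 values derive from CCK-8 absorbance (450 nm, 2 h reagent incubation) measured after a 48 h exposure to test compounds. Before dosing, cells plated at 2×10^4 cells/mL had attached for 24 h under 5% CO2 at 37° C; triplicate wells per concentration.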

[2] = tested on: human dermal fibroblasts CCC-ESF-1; test: Anti-fibrosis activity test: inhibition of proliferation of human dermal fibroblasts CCC-ESF-1 (CCK-8); conditions: Fibroblast
Method in brief: as §1

BHK-21 cells = test: Anti-fibrosis activity test: inhibition of BHK-21 cell proliferation (CCK-8); conditions: Mesocricetus auratus, BHK-21, 48 h
Method in brief: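 Proliferation of BHK-21 cells is measured by CCK-8 at 450 nm following 48 h compound exposure at several concentrations. Inhibition is expressed relative to blank control and IC50 is computed from it.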

[3] = tested on: human embryonic lung fibroblast IMR-90; test: Anti-fibrosis activity test: inhibition of proliferation of human embryonic lung fibroblast IMR-90 (CCK-8)
Method in brief: as §1

[4] = tested on: mouse macrophages (RAW264.7); test: Lipopolysaccharide-induced NO secretion in macrophages (Griess); conditions: RAW264.7, LPS 1 μg/ml, a/b isomers given as first/second symbol, read-out: IC50 (μM), inhibition of lipopolysaccharide-induced NO secretion in macrophages
Method: The effects of the compounds of the present application on the lipopolysaccharide-induced NO secretion in macrophage was tested Principle: Anti-inflammatory drug activity screening is to detect the inhibitory effect of compounds on NO production in the mouse macrophages (RAW264.7). When immune cells are stimulated by microbial endotoxin, inflammatory mediators, etc., a large amount of induced NO synthase (iNOS) is produced, and thus NO is generated for immune response. Accordingly, the inhibition of NO production can serve as a direct indicator of the anti-inflammatory activity of the compound. The activity of the compound to inhibit NO production at the cellular level is directly evaluated in the abovementioned test model, thereby reflecting the anti-inflammatory activity of the compound. In this experiment, the content of NO in the medium was detected by Gris kit (Molecular probes, G-7921). Macrophages (Raw264.7) were cultured in DMEM medium containing 10% fetal bovine serum, with the cell concentration adjusted. The cells were seeded in 24-well cell culture plates, cultured in an incubator, and the test samples in different concentrations were added every other day. The blank medium was used as a blank control, and commercially available indomethacin and resveratrol were employed as positive controls. After the addition of lipopolysaccharide (LPS, 1 μg/ml), incubation was performed for 24 hours. Then the supernatant culture solution was taken, to […] reagent was added, and the absorbance value was measured by a microplate reader at 548 nm. Inhibition rate=([…])×100%.

[5] = tested on: human hepatic stellate cells LX-2; test: Anti-fibrosis activity test: inhibition of proliferation of human hepatic stellate cells LX-2 (CCK-8); conditions: Homo sapiens, 48 h
Method in brief: as §1

[6] = tested on: cardiac fibroblast RAT-iCell-C002; test: Anti-fibrosis activity test: inhibition of proliferation of cardiac fibroblast RAT-iCell-C002 (CCK-8)
Method in brief: as §1

[7] = tested on: human fibrosarcoma cells HT-1080; test: Anti-fibrosis activity test: inhibition of proliferation of human fibrosarcoma cells HT-1080 (CCK-8); conditions: Homo sapiens, HT-1080, 48 h
Method in brief: as §1

[8] = human lung fibroblasts HFL1, CCK-8, 48 hours
[9] = human dermal fibroblasts CCC-ESF-1, CCK-8, 48 hours
[10] = CCK-8, 48 hours after administration
[11] = human embryonic lung fibroblast IMR-90, CCK-8, 48 hours
[12] = human hepatic stellate cells LX-2, CCK-8, 48 hours
[13] = Cardiac fibroblast, 48 h, cardiac fibroblast RAT-iCell-C002, CCK-8, 48 hours
[14] = human fibrosarcoma cells HT-1080, CCK-8, 48 hours
[15] = cardiac fibroblast RAT-iCell-C002, CCK-8, 48 hours
[16] = Homo sapiens, CCC-ESF-1 cells, 48 h, CCK-8
[17] = Homo sapiens, IMR-90 cells, 48 h, CCK-8
[18] = Cardiac fibroblast, 48 h, RAT-iCell-C002 cells, CCK-8

Compound: CCOc1c2c(nc3ccc(F)cc13)-c1cccn1C2=O [Compound 104b, 9-ethoxy-7-fluoro-10H-pyrrolizino[1,2-b]quinolin-10-one]
- IC50 [1, 8]: 0.05 to 5 mM
- IC50 [2, 9]: 0.05 to 5 mM
- IC50 (BHK-21 cells; [10]): 0.05 to 5 mM
- IC50 [3, 11]: 0.05 to 5 mM
- IC50 ([4]; Mus musculus, RAW264.7, 24 h): 1 to 10 µM
- IC50 [5, 12]: 0.05 to 5 mM
- IC50 [6, 13]: 0.05 to 5 mM
- IC50 [7, 14]: 0.05 to 5 mM

Compound: CC(C)n1c2c(c(=O)c3cc(F)ccc31)C(=O)n1cccc1-2 [Compound 108a, 7-Fluoro-4-isopropyl-9H-pyrrolizino[1,2-b]quinoline-9,10(4H)-dione]
- IC50 [1, 8]: 0.05 to 5 mM
- IC50 [2, 9]: 0.05 to 5 mM
- IC50 (BHK-21 cells; [10]): 0.05 to 5 mM
- IC50 [3, 11]: 0.05 to 5 mM
- IC50 ([4]; Mus musculus, RAW264.7, 24 h): 1 to 10 µM
- IC50 [5, 12]: 0.05 to 5 mM
- IC50 [6, 13]: 0.05 to 5 mM
- IC50 [7, 14]: 5 to 20 mM

Compound: O=C1c2c(nc3c(C(F)(F)F)c(N4CCNCC4)ccc3c2OCc2ccc(Cl)cc2)-c2cccn21 [Compound 487b, 9-((4-chlorobenzyl)oxy)-6-(piperazin-1-yl)-5-(trifluoromethyl)-10H-pyrrolizino[1,2-b]quinolin-10-one]
- IC50 ([4]; 24 hours): 10 to 50 µM
- IC50 [6, 15]: 0.05 to 5 mM

Compound: O=C1c2c(nc3cccc(Cl)c3c2OCc2ccccc2Cl)-c2cccn21 [Compound 645b, 8-chloro-9-((2-chlorobenzyl)oxy)-10H-pyrrolizino[1,2-b]quinolin-10-one]
- IC50 [1, 8]: 0.05 to 5 mM
- IC50 [2, 9]: 0.05 to 5 mM
- IC50 (BHK-21 cells; [10]): 0.05 to 5 mM
- IC50 [3, 11]: 0.05 to 5 mM
- IC50 [5, 12]: 0.05 to 5 mM
- IC50 [6, 13]: 0.05 to 5 mM
- IC50 [7, 14]: 0.05 to 5 mM

Compound: O=C1c2c(n(Cc3ccc(Cl)cc3)c3cc(N4CCNCC4)cc(F)c3c2=O)-c2cccn21 [Compound 647a, 4-(4-Chlorobenzyl)-8-fluoro-6-(piperazin-1-yl)-9H-pyrrolizino[1,2-b]quinoline-9,10(4H)-dione]
- IC50 [1, 8]: 0.05 to 5 mM
- IC50 [2, 9]: 0.05 to 5 mM
- IC50 (BHK-21 cells; [10]): 0.05 to 5 mM
- IC50 [3, 11]: 0.05 to 5 mM
- IC50 [5, 12]: 0.05 to 5 mM
- IC50 [6, 13]: 0.05 to 5 mM
- IC50 [7, 14]: 0.05 to 5 mM

Compound: Cc1ccc2n1C(=O)c1c-2[nH]c2ccccc2c1=O [Compound 800a, 1-Methyl-9H-pyrrolizino[1,2-b]quinoline-9,10(4H)-dione]
- IC50 ([1]; HFL1 cells, 48 h, CCK-8): 0.05 to 5 mM
- IC50 [2, 16]: 0.05 to 5 mM
- IC50 (BHK-21 cells; 48 h, CCK-8): 0.05 to 5 mM
- IC50 [3, 17]: 0.05 to 5 mM
- IC50 ([5]; LX-2, 48 h, LX-2 cells, CCK-8): 0.05 to 5 mM
- IC50 [6, 18]: 0.05 to 5 mM
- IC50 ([7]; HT-1080 cells, 48 h, CCK-8): 0.05 to 5 mM

Compound: Cc1ccc2n1C(=O)c1c-2nc2ccccc2c1O [Compound 800b, 9-hydroxy-1-methyl-10H-pyrrolizino[1,2-b]quinolin-10-one]
- IC50 ([1]; HFL1 cells, 48 h, CCK-8): 0.05 to 5 mM
- IC50 [2, 16]: 0.05 to 5 mM
- IC50 (BHK-21 cells; 48 h, CCK-8): 0.05 to 5 mM
- IC50 [3, 17]: 0.05 to 5 mM
- IC50 ([5]; LX-2, 48 h, LX-2 cells, CCK-8): 0.05 to 5 mM
- IC50 [6, 18]: 0.05 to 5 mM
- IC50 ([7]; HT-1080 cells, 48 h, CCK-8): 0.05 to 5 mM

Compound: COc1ccc2c(c1)c(CC(=O)O)c(C)n2C(=O)c1ccc(Cl)cc1 [indomethacin, reference compound]
- IC50 ([4]; Mus musculus, RAW264.7, 24 h): 10 to 50 µM

Compound: Oc1ccc(C=Cc2cc(O)cc(O)c2)cc1 [resveratrol, reference compound]
- IC50 ([4]; Mus musculus, RAW264.7, 24 h): 1 to 10 µM

The next lines start with results.

- IC50 ([4]; Mus musculus, RAW264.7, 24 h): 1 to 10 µM
- IC50 [7, 14]: 0.05 to 5 mM
Compound: CCn1c2c(c(=O)c3cc(F)ccc31)C(=O)n1cccc1-2 [Compound 104a, 4-Ethyl-7-fluoro-9H-pyrrolizino[1,2-b]quinoline-9,10(4H)-dione]
- IC50 [1, 8]: 0.05 to 5 mM
- IC50 [2, 9]: 0.05 to 5 mM
- IC50 (BHK-21 cells; [10]): < 0.05 mM
- IC50 [3, 11]: 0.05 to 5 mM
- IC50 [5, 12]: 0.05 to 5 mM
- IC50 [6, 13]: 0.05 to 5 mM

- IC50 ([4]; Mus musculus, RAW264.7, 24 h): 1 to 10 µM
- IC50 [7, 14]: 5 to 20 mM
Compound: CC(C)Oc1c2c(nc3ccc(F)cc13)-c1cccn1C2=O [Compound 108b, 7-fluoro-9-isopropoxy-10H-pyrrolizino[1,2-b]quinolin-10-one]
- IC50 [1, 8]: 0.05 to 5 mM
- IC50 [2, 9]: 0.05 to 5 mM
- IC50 (BHK-21 cells; [10]): 0.05 to 5 mM
- IC50 [3, 11]: 0.05 to 5 mM
- IC50 [5, 12]: 0.05 to 5 mM
- IC50 [6, 13]: 0.05 to 5 mM

- IC50 ([4]; 24 hours): 0.1 to 1 µM
Compound: O=C1c2c(n(Cc3ccc(Cl)cc3)c3c(C(F)(F)F)c(N4CCNCC4)ccc3c2=O)-c2cccn21 [Compound 487a, 4-(4-Chlorobenzyl)-6-(piperazin-1-yl)-5-(trifluoromethyl)-9H-pyrrolizino[1,2-b]quinoline-9,10(4H)-dione]
- IC50 [6, 15]: < 0.05 mM

- IC50 [7, 14]: 0.05 to 5 mM
Compound: O=C1c2c(n(Cc3ccccc3Cl)c3cccc(Cl)c3c2=O)-c2cccn21 [Compound 645a, 8-Chloro-4-(2-chlorobenzyl)-9H-pyrrolizino[1,2-b]quinoline-9,10(4H)-dione]
- IC50 [1, 8]: 0.05 to 5 mM
- IC50 [2, 9]: < 0.05 mM
- IC50 (BHK-21 cells; [10]): 0.05 to 5 mM
- IC50 [3, 11]: 0.05 to 5 mM
- IC50 [5, 12]: 0.05 to 5 mM
- IC50 [6, 13]: 0.05 to 5 mM

- IC50 [7, 14]: 0.05 to 5 mM
Compound: O=C1c2c(n(Cc3ccc(F)cc3)c3cc(N4CCNCC4)cc(F)c3c2=O)-c2cccn21 [Compound 646a, 8-Fluoro-4-(4-fluorobenzyl)-6-(piperazin-1-yl)-9H-pyrrolizino[1,2-b]quinoline-9,10(4H)-dione]
- IC50 [1, 8]: 0.05 to 5 mM
- IC50 [2, 9]: 0.05 to 5 mM
- IC50 (BHK-21 cells; [10]): 0.05 to 5 mM
- IC50 [3, 11]: 0.05 to 5 mM
- IC50 [5, 12]: 0.05 to 5 mM
- IC50 [6, 13]: 0.05 to 5 mM

- IC50 [7, 14]: 0.05 to 5 mM
Compound: O=C1c2c(nc3cc(N4CCNCC4)cc(F)c3c2OCc2ccc(F)cc2)-c2cccn21 [Compound 646b, 8-fluoro-9-((4-fluorobenzyl)oxy)-6-(piperazin-1-yl)-10H-pyrrolizino[1,2-b]quinolin-10-one]
- IC50 [1, 8]: 0.05 to 5 mM
- IC50 [2, 9]: 0.05 to 5 mM
- IC50 (BHK-21 cells; [10]): 0.05 to 5 mM
- IC50 [3, 11]: 0.05 to 5 mM
- IC50 [5, 12]: 0.05 to 5 mM
- IC50 [6, 13]: 0.05 to 5 mM

- IC50 [7, 14]: 0.05 to 5 mM
Compound: O=C1c2c(nc3cc(N4CCNCC4)cc(F)c3c2OCc2ccc(Cl)cc2)-c2cccn21 [Compound 647b, 9-((4-chlorobenzyl)oxy)-8-fluoro-6-(piperazin-1-yl)-10H-pyrrolizino[1,2-b]quinolin-10-one]
- IC50 [1, 8]: 0.05 to 5 mM
- IC50 [2, 9]: 0.05 to 5 mM
- IC50 (BHK-21 cells; [10]): 0.05 to 5 mM
- IC50 [3, 11]: 0.05 to 5 mM
- IC50 [5, 12]: 0.05 to 5 mM
- IC50 [6, 13]: 0.05 to 5 mM

- IC50 ([7]; HT-1080 cells, 48 h, CCK-8): 0.05 to 5 mM
Compound: Cc1cc2n(c1)C(=O)c1c-2[nH]c2ccccc2c1=O [Compound 801a, 2-Methyl-9H-pyrrolizino[1,2-b]quinoline-9,10(4H)-dione]
- IC50 ([1]; HFL1 cells, 48 h, CCK-8): 0.05 to 5 mM
- IC50 [2, 16]: 0.05 to 5 mM
- IC50 (BHK-21 cells; 48 h, CCK-8): < 0.05 mM
- IC50 [3, 17]: 0.05 to 5 mM
- IC50 ([5]; LX-2, 48 h, LX-2 cells, CCK-8): 0.05 to 5 mM
- IC50 [6, 18]: 0.05 to 5 mM
